# Assay results published in patent publication US20140100183A1, “CENTRAL ADMINISTRATION OF STABLE FORMULATIONS OF THERAPEUTIC AGENTS FOR CNS CONDITIONS” (The Regents of the University of Colorado, a body corporate, priority 2006, published 2014).
# Where a name gives a salt, the structure may show the parent alone. Read-outs that look alike come from different tables or passages of the source. Marks after values point to notes of the source that are not given here.
# Key:
# [1] = tested on: patients diagnosed with psychotic disorders; experiment: ICV or cisterna magna treatment of psychotic disorders (Example 5); conditions: central administration, 0.01 to 0.1 mg per hour, 1 week
# Description: A 5 mg/ml solution of the active agent is solubilized in aqueous solution using beta-hydroxypropyl cyclodextrin, made isotonic with NaCl, and the pH is maintained at 7.4 with 10 mM sodium phosphate. […] The stabilized solution is inserted into a fluid reservoir attached to a Medtronic Synchromed-II intrathecal delivery system. The stabilized formulation is intracerebroventricularly or cistema magna injected into patients diagnosed with psychotic disorders.
# Injection is continuous, using a computerized pump to provide a delivery rate of 0.01 to 0.1 mg of the active agent per hour, depending on the severity of symptoms.
# [2] = cited from earlier work; for Comments: solubility: qualitative, solvents as given in the source
# [3] = tested on: primary mouse cortical neuron cultures; experiment: Toxicity in primary mouse cortical neuron cultures (MTT); conditions: 24 hours, 0.002% to 0.1% in culture media
# Description: In addition, a preliminary assessment of the toxicity of cyclodextrin in primary mouse cortical neuron cultures was performed. […] After dissection, and cellular dissociation, the cells were washed with Dulbecco's Modified Eagle's Medium with 10% fetal bovine serum. Following recentrifugation, the cells resuspended in plating medium, counted with trypan blue and plated at a constant density of 6.5×10^4 cells per well in a 96-well pre-coated plate. […] The cultures were maintained at 37° C. in a humidified atmosphere of 5% CO2. […] The cultures were incubated and cell toxicity assayed at 24, 48 and 72 hours. Viability was assessed by the MTT (3-(4,5 diethylthiazol-2-yl)-2,5)diphenyltetrazolium bromide) assay, CellTiter 96 Non-radioactive cell Proliferation Assay (Promega, Madison Wis.) and by visual examination.
# [4] = tested on: human; conditions: effective daily dose, oral; cited from earlier work
# [5] = tested on: patients diagnosed with epilepsy disorders; experiment: ICV or cisterna magna treatment of epilepsy (Example 6); assay type: in vivo, human; conditions: central administration, 0.01 to 0.1 mg per hour, 1 week
# Excerpt: After 1 week of treatment, epileptic frequency is reduced.
# [6] = tested on: sensory inhibition deficits in DBA/2 mice; experiment: Sensory inhibition (paired auditory stimuli, TC ratio) after acute ICV administration; assay type: in vivo, mouse; conditions: 5 μg dose ICV
# Description: The following methods were used to record the sensory inhibition.
# The deficit in sensory inhibition can be quantified using the paired stimulus paradigm in which 2 identical stimuli are delivered 0.5 seconds apart and the electrophysiological response to each is recorded. In normal individuals, the response to the second, or test, stimulus, occurring 50 msec after stimulus onset, is reduced compared to the response to the first, or conditioning stimulus. However, schizophrenia patients have similar magnitude responses to both stimuli: The “TC ratio” is calculated by dividing the test amplitude by the conditioning amplitude. […] In normal individuals, the TC ratio is generally less than 0.4 while schizophrenia patients commonly have TC ratios above 0.5 and often approaching or exceeding 1.0.
# In the present study, briefly, 5 baseline records were obtained in response to the paired auditory stimuli, prior to drug administration. […] Recordings were obtained at 5 minute intervals for 90 minutes post injection. Data analyzed included the amplitude of the response to the first stimulus (conditioning amplitude), amplitude of the response to the second stimulus (test amplitude) and the TC ratio (test amplitude/conditioning amplitude). This final parameter gives a measure of the level of inhibition in the circuit initiated by the conditioning stimulus. […] DBA/2 mice routinely have TC ratios of ≧0.8.
# [7] = tested on: pentylenetetrazole (PTZ) seizure induction in rats; experiment: Pentylenetetrazole (PTZ) seizure induction model, ICV administration; assay type: in vivo, rat; conditions: for % Change: drug group vs vehicle group (-V); for Rodent ICV dose: effective daily dose, blocking seizures; for Efficacy: effective in blocking seizures; for % of Oral dose: rodent ICV dose vs human oral equivalent
# Description: Rats are anesthetized, placed in a stereotaxic instrument and a burr hole opened over one anterior lateral ventricle. A cannula is lowered to the ventricle and 5 μl of solution containing the drug is injected into the ventricle over 10 minutes. The incision is then closed and the animal allowed to regain consciousness and remain conscious for 10 minutes. After 10 minutes has elapsed, pentylenetetrazole (PTZ, 10 mg/ml in saline) is injected through a tail-vein catheter at a constant rate of infusion (1 ml/min, Razel syringe pump) until a motor seizure is induced. PTZ seizures are identified as myoclonic jerking followed by clonus and tonus. The time from the initial application of PTZ to the first clonic seizure (i.e., forelimb clonus) is measured and defined as “latency to seiqure onset”. The total amount of PTZ infused is calculated and then divided by each rat;s body weight to obtain the dose (mg/kg) of PTZ. The dose required to attain status epilepticus is compared to the PTZ dose without antiseizure medication.
# [8] = tested on: anxiety in rats (elevated plus maze, open field); experiment: Elevated plus maze and open field conflicts test after ICV antidepressants; assay type: in vivo, rat; conditions: for Rodent ICV dose: anxiety reduction; for % of Oral dose: rodent ICV dose vs human oral equivalent
# Description: Various antidepressants were injected via ICV, and animals monitored in standard elevated plus maze and open field conflicts test.
# Rats are placed in the center of a pluz-shaped maze. The arms are 13 cm wide; two arms were open and two are enclosed by 32 cm high walls. The maze is elevated off the flor by 51 cm. The percent of time and distance traveled in each type of arm over the 4 minute test period is calculated by computer. Increased time and distance traveled in the open arms is thought to reflect anxiolytic activity.
# Rats are place against 1 side of a 104 cm square box with 32 cm sides. The activity of the rat is monitored by computer over a 4 minute testing period. A computer divides the openfied space into 25 equal squares arranged into an outer:ring” of 16 squares, a middle region of 8 squares and a central square. The percent of time and distarnce traveled in the center square by rats receiving the drug are calculated and compared to rats receiving a saline control. Increased time and distance traveled in the center square is thought to reflect anxiolytic activity.
compound,measurement,setting,value
O=C1Cc2cc(CCN3CCN(c4nsc5ccccc45)CC3)c(Cl)cc2N1 [Geodon],alleviation of psychotic symptoms,[1],efficacious therapeutic alleviation of psychotic symptoms
"O=C(CCCN1CCC(O)(c2ccc(Cl)cc2)CC1)c1ccc(F)cc1 [HALOPERIDOL, 4-[4-(p-chlorophenyl)-4-hydroxypiperidino]-4′-fluorobutyrophenone]",Comments: solubility,[2],sparingly soluble in water and soluble in ethanol
"CC(NC(C)(C)C)C(=O)c1cccc(Cl)c1.Cl (stereo not drawn) [BUPROPION, 1-(3-chlorophenyl)-2-[(1,1-dimethylethyl)amino]-1-propanone hydrochloride]",Comments: solubility,[2],freely soluble in water and soluble in alcohol and in chloroform.
cyclodextrin,toxicity of cyclodextrin alone,[3],no toxicity
"O=C(O)c1ccccc1O [SALICYLIC ACID, 2-Hydroxybenzoic acid]",Comments: solubility,[2],almost insoluble in water
"CC(C)NCC(O)COc1cccc2ccccc12.Cl (stereo not drawn) [PROPRANOLOL, 1-(Isopropylamino)-3-(1-naphthyloxy)-2-propanol hydrochloride]",Comments: solubility,[2],soluble in methanol or ethanol but which has no appreciable solubility in water at physiological pH
O=C1CCc2ccc(OCCCCN3CCN(c4cccc(Cl)c4Cl)CC3)cc2N1 [Aripiprazole],alleviation of psychotic symptoms,[1],efficacious therapeutic alleviation of psychotic symptoms
"O=C1CN=C(c2ccccc2)c2cc([N+](=O)[O-])ccc2N1 [NITRAZEPAM, 1,3-Dihydro-7-nitro-5-phenyl-2H-1,4-benzodiazepin-2-one]",Comments: solubility,[2],"Soluble 1 in 12 of water, 1 in 14 of alcohol, and 1 in 3.5 of chloroform; insoluble in ether; freely soluble in methyl alcohol"
"(−)-trans-4R-(4′- fluorophenyl)-3S-((3′,4′- methylenedioxyphenoxy) methyl)piperidine [PAROXETINE]",Comments: solubility,[2],soluble in alcohol and poorly soluble in water
"CCCC(CCC)C(=O)O [Valproate, 2-Propylpentanoic acid]",Human oral equivalent,[4],1 mg/kg
"OCCOCCN1CCN(C(c2ccccc2)c2ccc(Cl)cc2)CC1 (stereo not drawn) [HYDROXYZINE, 2-[2-[4-(p-chlorobenzhydryl)-1-piperazinyl]ethoxy]ethanol dihydrochloride.]",Comments: solubility,[2],"slightly soluble in water and isopropyl alcohol, sparingly soluble in ethanol"
"O=C1NC(=O)C(c2ccccc2)(c2ccccc2)N1 [PHENYTOIN, 5,5-diphenyl-2,4-imidazolidinedione]",Comments: solubility,[2],Very soluble in water
same,alleviation of seizures,[5],efficacious therapeutic alleviation of seizures
"NC(=O)N1c2ccccc2CC(=O)c2ccccc21 [OXCARBAZEPINE, 10,11-Dihydro-10-oxo-5H-dibenz[b,f]azepine-5-carboxamide]",Comments: solubility,[2],"Freely soluble in water, in alcohol, and in dichloromethane"
"CCN(CC)CCN1C(=O)CN=C(c2ccccc2F)c2cc(Cl)ccc21 [FLURAZEPAM, 7-chloro-1-[2-(diethylamino)ethyl]-5-(o-fluorophenyl)-1,3-dihydro-2H-1,4-benzodiazepin-2-one dihydrochloride]",Comments: solubility,[2],"Soluble in water, in alcohol, and in 0.1N hydrochloric acid."
Nc1nnc(-c2cccc(Cl)c2Cl)c(N)n1 [Lamictal],Human oral equivalent,[4],3.33 mg/kg
Cc1nccn1CC1CCc2c(c3ccccc3n2C)C1=O (stereo not drawn) [ondansetron],TC ratio,[6],significantly reduced TC ratios
"Cc1nnc2n1-c1ccc(Cl)cc1C(c1ccccc1)=NC2 [ALPRAZOLAM, 8-Chloro-1-methyl-6-phenyl-4H-s-triazolo(4,3-a) (1,4) benzodiazepine]",Comments: solubility,[2],very slightly soluble in water
"NC(=O)N1c2ccccc2C=Cc2ccccc21 [Tegretol, 5H-dibenz[b,f]azepine-5-carboxamide]",Comments: solubility,[2],Slightly soluble in water and in alcohol
same,% Change,[7],60%
same,Rodent ICV dose,[7],0.00888 mg/kg
same,Efficacy,[7],effective in blocking
same,% of Oral dose,[7],0.13%
same,Human oral equivalent,[4],6.66 mg/kg
same,alleviation of seizures,[5],efficacious therapeutic alleviation of seizures
Cl.O=c1n(CCCN2CCN(c3cccc(Cl)c3)CC2)nc2ccccn12 [TRAZODONE],Solubility in water,[2]; at 20 C.,insoluble in water <0.1 g/100 mL at 20 C.
"Cc1nnc2n1-c1ccc(Cl)cc1C(c1ccccc1Cl)=NC2 [TRIAZOLAM, 8-chloro-6-(o-chlorophenyl)-1-methyl-4H-s-triazolo-(4,3-alpha)(1,4) benzodiazepine]",Comments: solubility,[2],practically insoluble in water and soluble in alcohol and in acetone
"Clc1ccc2c(c1)C(N1CCNCC1)=Nc1ccccc1O2 [AMOXAPINE, 2-Chloro-11-(1-piperazinyl)dibenz(b,f)(1,4) oxazepine]",Comments: solubility,[2],"Soluble 1 in 460 of water, 1 in 15 of boiling water, 1 in 3 of alcohol, 1 in 45 of chloroform, 1 in 3 of ether, and 1 in 135 of benzene."
OCCOCCN1CCN(C2=Nc3ccccc3Sc3ccccc32)CC1 [Quetiapine],alleviation of psychotic symptoms,[1],efficacious therapeutic alleviation of psychotic symptoms
"CNCCC(Oc1ccc(C(F)(F)F)cc1)c1ccccc1 (racemic) [Fluoxetine, (+/−)-N-Methyl-3-phenyl-3-(alpha,alpha,alpha-trifluoro-p-tolyloxy)propylamine hydrochloride]",Human oral equivalent,[4],0.33 mg/kg
same,Rodent ICV dose,[8]; estimated effective dose,0.74** mg/kg
same,% of Oral dose,[8],224%
"CN1CCN(CC/C=C2/c3ccccc3Sc3ccc(S(=O)(=O)N(C)C)cc32)CC1 [THIOTHIXINE, cis isomer of N,N-dimethyl-9-[…]3-(4-methyl-1-piperazinyl)-propylidene[…] thioxanthene-2-sulfonamide.]",Comments: solubility,[2],Slightly soluble in water; soluble in alcohol and in methyl alcohol
[Li] [LITHIUM],Solubility in water,[2]; at 22 C.,water 0.1-0.5 g/100 mL
"CN(C)CCCN1c2ccccc2CCc2ccccc21 [IMIPRAMINE, 10,11-dihydro-N,N-dimethyl-5H-Dibenz[b,f]azepine-5-propanamine]",Comments: solubility,[2],"insoluble in the common organic solvents, but very soluble in water."
"CN(C)CCCN1c2ccccc2CCc2ccc(Cl)cc21 [Clomipramine, 3-(3-Chloro-10,11-dihydro-5H-dibenz[b,f]azepin-5-yl)propyldimethylamine hydrochloride]",Human oral equivalent,[4],4.16 mg/kg
same,Rodent ICV dose,[8]; effective daily dose,0.37 mg/kg
same,% of Oral dose,[8],8.8%
"CCC(=O)C(CC(C)N(C)C)(c1ccccc1)c1ccccc1 (stereo not drawn) [METHADONE, 1,1-Diphenyl-1-(2-dimethylaminopropyl)-2-butanone]",Comments: solubility,[2],Soluble in water; freely soluble in alcohol and in chloroform; practically insoluble in ether and in glycerol
CCCCNc1cc(C(=O)O)cc(S(N)(=O)=O)c1Oc1ccccc1 [Bumex],% Change,[7],90%
same,Rodent ICV dose,[7],0.000364 mg/kg
same,Efficacy,[7],effective in blocking
same,% of Oral dose,[7],1.1%
same,Human oral equivalent,[4],0.033 mg/kg
same,alleviation of seizures,[5],efficacious therapeutic alleviation of seizures
"CCc1nn(CCCN2CCN(c3cccc(Cl)c3)CC2)c(=O)n1CCOc1ccccc1 [NEFAZODONE, 2-(3-(4-(3-chlorophenyl)-1-piperazinyl)propyl)-5-ethyl-2,4-dihydro-4-(2-phenoxyethyl)-3H-1,2,4-triazol-3-one]",Solubility in water,[2]; at 25 C.,Soluble in water <0.1 g/100 mL at 25 C.
"NNCCc1ccccc1 [Phenelzine, 2-Phenylethylhydrazine]",Human oral equivalent,[4],1.5 mg/kg
same,Rodent ICV dose,[8]; effective daily dose,1.8 mg/kg
same,efficacy following ICV administration,[8]; elevated plus maze and open field conflicts test,efficacy
same,Efficacy,"[8]; rat, in vivo",anxiety reduction
same,% of Oral dose,[8],120%
"COc1cc2nc(N3CCN(C(=O)c4ccco4)CC3)nc(N)c2cc1OC.Cl [PRAZOSIN, 2-[4-(2-Furoyl)piperazin-1-yl]-6,7 dimethoxyquinazolin-4-ylamine hydrochloride]",Solubility in water,[2],very slightly soluble in water (<1 mg/ml) and readily soluble in organic solvents such as ethanol and acetone
same,Comments: solubility,[2],very slightly soluble in water (<1 mg/ml) and readily soluble in organic solvents such as ethanol and acetone
"CCN(CC)C(=S)SSC(=S)N(CC)CC [ANTABUSE, bis (diethylthiocarbamoyl) disulfide]",Solubility in water,[2]; at 22 C.,Soluble in water <0.1 g/100 mL at 22 C.
"C=CCN1CC[C@]23c4c5ccc(O)c4O[C@H]2C(=O)CC[C@@]3(O)[C@H]1C5 [NALOXONE, (−)-17-Allyl-4, 5α-epoxy-3,14-dihydroxymorphinan-6-one hydrochloride]",Comments: solubility,[2],freely soluble in USP alcohol and very soluble in water
"CC1=CC(=O)N2CC(=O)N(C)c3ccc(Cl)cc3C2(c2ccccc2)O1 (stereo not drawn) [KETAZOLAM, 11-Chloro-8,12b-dihydro-2,8-dimethyl-12b-phenyl-4H-[1,3]oxazino[3,2-d][1,4]benzodiazepine-4,7(6H)-dione]",Comments: solubility,[2],Practically insoluble in water; slightly soluble in alcohol; freely soluble in chloroform
"O=C1Nc2ccc(Cl)cc2C(c2ccccc2Cl)=NC1O (stereo not drawn) [LOREZAPAM, 7-chloro-5-(0-chlorophenyl)-1,3-dihydro-3-hydroxy-2H-1,4-benzo-diazepin-2-one]",Comments: solubility,[2],Very soluble in organic solvents.
